Test results as given in ChEMBL document CHEMBL1201862, “PubChem BioAssay data set” (2004).
Calls of active or inactive are those of the source.

Experiments:
[1] = biological target: G protein-coupled receptor kinase 5 (Homo sapiens, UniProt P34947); test: Navigating the Kinome. Panel member name: GPRK5; format: functional
[2] = biological target: Tyrosine-protein kinase FRK (Homo sapiens, UniProt P42685); format: functional;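 further: FRK tested as one member of a kinome panel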
[3] = biological target: Serine/threonine-protein kinase Nek2 (Homo sapiens, UniProt P51955); format: functional
Chain of Serine/threonine-protein kinase Nek2 (P51955 whole entry): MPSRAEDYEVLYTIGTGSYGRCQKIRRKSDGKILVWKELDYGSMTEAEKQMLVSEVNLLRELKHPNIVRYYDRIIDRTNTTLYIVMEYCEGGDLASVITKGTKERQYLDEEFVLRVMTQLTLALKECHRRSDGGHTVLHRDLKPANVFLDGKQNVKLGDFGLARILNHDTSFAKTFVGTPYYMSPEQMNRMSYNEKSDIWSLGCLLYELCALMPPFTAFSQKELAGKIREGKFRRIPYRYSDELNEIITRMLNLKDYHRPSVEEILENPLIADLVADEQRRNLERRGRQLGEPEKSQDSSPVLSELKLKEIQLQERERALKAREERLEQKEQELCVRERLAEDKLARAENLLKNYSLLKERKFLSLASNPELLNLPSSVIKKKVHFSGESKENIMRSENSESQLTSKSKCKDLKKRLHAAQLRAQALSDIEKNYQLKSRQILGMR

[4] = biological target: Dual specificity tyrosine-phosphorylation-regulated kinase 4 (Homo sapiens, UniProt Q9NR20); format: functional
Chain of Dual specificity tyrosine-phosphorylation-regulated kinase 4 (Q9NR20 whole entry): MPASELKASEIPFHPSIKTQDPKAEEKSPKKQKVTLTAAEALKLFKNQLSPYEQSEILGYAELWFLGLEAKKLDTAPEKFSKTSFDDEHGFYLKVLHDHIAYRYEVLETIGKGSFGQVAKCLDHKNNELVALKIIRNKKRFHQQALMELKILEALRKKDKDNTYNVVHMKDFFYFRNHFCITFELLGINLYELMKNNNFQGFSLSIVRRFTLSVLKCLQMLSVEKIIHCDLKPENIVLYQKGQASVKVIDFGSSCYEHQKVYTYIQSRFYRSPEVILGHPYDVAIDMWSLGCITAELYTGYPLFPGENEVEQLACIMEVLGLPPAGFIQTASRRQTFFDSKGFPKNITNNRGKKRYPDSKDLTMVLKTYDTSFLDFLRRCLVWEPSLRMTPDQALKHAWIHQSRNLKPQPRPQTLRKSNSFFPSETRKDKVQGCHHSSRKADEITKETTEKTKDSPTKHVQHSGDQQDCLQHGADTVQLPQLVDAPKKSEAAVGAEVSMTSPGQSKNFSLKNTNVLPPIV

[5] = biological target: Cyclin-dependent kinase 5 (Homo sapiens, UniProt Q00535); format: functional;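 further: CDK5 measured as one member of a kinase profiling panel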
Chain of Cyclin-dependent kinase 5 (Q00535 whole entry): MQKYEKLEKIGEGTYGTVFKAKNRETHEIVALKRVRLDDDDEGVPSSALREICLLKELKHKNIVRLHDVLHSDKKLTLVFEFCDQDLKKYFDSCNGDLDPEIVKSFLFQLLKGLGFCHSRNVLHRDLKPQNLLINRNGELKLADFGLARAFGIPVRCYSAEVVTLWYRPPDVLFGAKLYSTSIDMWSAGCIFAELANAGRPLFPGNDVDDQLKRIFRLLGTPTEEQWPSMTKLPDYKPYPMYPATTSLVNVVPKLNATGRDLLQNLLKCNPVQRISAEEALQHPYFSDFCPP

[6] = biological target: High affinity nerve growth factor receptor (Homo sapiens, UniProt P04629); format: functional;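 further: NTRK1 tested as one member of a kinome-wide profiling panel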
Chain of High affinity nerve growth factor receptor (P04629 whole entry): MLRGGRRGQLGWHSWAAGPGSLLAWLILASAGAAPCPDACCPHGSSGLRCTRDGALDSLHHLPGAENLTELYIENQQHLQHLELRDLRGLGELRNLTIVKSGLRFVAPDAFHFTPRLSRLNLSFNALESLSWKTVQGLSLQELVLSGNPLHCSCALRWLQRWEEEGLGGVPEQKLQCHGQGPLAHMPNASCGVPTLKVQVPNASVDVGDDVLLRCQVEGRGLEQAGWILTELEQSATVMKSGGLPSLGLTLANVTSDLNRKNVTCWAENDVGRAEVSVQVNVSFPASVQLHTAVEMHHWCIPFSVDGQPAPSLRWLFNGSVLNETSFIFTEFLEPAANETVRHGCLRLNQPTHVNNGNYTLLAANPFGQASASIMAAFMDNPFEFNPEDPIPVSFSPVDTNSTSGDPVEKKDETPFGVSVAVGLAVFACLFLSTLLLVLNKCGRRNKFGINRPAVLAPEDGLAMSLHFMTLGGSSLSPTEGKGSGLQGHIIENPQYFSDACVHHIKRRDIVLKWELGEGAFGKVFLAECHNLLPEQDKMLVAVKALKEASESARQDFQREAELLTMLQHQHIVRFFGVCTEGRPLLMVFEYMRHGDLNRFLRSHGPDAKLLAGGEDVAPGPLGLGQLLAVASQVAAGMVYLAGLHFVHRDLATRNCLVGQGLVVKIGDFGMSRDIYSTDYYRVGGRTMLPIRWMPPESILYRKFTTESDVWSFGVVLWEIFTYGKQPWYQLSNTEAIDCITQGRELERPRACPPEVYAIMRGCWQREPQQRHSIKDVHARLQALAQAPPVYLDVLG

[7] = biological target: Maternal embryonic leucine zipper kinase (Homo sapiens, UniProt Q14680); format: functional
Chain of Maternal embryonic leucine zipper kinase (Q14680 whole entry): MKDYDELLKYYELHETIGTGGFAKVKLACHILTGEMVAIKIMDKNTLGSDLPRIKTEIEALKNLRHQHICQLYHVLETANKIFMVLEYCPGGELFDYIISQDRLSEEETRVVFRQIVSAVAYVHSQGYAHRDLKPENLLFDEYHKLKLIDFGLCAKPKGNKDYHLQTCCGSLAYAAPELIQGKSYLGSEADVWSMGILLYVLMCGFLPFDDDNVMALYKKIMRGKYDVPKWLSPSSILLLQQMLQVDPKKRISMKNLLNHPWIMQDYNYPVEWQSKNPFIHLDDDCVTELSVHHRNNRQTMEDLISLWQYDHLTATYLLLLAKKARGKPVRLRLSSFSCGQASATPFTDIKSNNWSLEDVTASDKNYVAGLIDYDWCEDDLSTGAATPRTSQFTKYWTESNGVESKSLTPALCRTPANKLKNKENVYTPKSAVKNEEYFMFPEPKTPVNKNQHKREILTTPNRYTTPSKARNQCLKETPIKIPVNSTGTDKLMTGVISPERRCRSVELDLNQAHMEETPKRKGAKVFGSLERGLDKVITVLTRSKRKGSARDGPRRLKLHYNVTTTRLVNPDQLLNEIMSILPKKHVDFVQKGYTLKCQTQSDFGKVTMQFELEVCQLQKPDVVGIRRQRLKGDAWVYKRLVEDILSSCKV

[8] = biological target: RAC-gamma serine/threonine-protein kinase (Homo sapiens, UniProt Q9Y243); format: functional
Chain of RAC-gamma serine/threonine-protein kinase (Q9Y243 whole entry): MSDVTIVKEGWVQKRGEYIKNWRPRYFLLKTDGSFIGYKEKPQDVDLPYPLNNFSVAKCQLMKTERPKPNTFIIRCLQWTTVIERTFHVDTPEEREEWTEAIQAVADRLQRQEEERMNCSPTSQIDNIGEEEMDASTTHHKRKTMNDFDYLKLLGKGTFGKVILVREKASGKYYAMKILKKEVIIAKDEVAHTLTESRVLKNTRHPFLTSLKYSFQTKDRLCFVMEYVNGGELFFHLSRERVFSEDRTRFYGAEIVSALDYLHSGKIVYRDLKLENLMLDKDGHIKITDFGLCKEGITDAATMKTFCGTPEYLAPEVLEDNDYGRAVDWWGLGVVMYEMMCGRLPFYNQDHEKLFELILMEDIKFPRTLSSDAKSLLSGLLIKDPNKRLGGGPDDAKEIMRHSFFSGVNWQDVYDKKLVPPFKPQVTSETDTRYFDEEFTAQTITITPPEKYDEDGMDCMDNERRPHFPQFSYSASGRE

[9] = biological target: Tyrosine-protein kinase ITK/TSK (Homo sapiens, UniProt Q08881); format: functional;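 further: affinity for ITK measured as one member of a broad kinase panel profiling binding across the kinome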
Chain of Tyrosine-protein kinase ITK/TSK (Q08881 whole entry, the tested form may be a part): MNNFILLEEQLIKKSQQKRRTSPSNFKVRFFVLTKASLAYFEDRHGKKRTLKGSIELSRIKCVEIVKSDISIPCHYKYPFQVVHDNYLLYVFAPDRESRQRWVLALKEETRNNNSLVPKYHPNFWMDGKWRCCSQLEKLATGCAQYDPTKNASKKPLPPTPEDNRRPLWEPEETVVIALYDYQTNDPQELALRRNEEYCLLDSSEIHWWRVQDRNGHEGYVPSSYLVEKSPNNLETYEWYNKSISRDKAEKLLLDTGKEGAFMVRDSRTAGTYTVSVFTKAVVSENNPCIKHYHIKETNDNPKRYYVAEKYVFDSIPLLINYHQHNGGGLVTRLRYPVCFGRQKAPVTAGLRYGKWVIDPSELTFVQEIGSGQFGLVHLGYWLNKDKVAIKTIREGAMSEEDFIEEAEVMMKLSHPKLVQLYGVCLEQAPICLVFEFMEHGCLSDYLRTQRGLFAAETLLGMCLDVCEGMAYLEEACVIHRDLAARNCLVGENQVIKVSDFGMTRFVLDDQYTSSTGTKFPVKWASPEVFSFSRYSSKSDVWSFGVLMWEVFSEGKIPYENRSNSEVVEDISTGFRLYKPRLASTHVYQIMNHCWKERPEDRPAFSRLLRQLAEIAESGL

[10] = biological target: T1, RNA-binding protein pos-1 (Caenorhabditis elegans, UniProt G5EF15); test: inhibitors of POS-1/mex-3 RNA binding, dose response, biochemical, fluorescence polarization (AID 1964);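 further: purified POS-1 fused to maltose binding protein made in E. coli; potency of compounds blocking POS-1 binding to fluorescent RNA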
T1 sequence (G5EF15 whole entry): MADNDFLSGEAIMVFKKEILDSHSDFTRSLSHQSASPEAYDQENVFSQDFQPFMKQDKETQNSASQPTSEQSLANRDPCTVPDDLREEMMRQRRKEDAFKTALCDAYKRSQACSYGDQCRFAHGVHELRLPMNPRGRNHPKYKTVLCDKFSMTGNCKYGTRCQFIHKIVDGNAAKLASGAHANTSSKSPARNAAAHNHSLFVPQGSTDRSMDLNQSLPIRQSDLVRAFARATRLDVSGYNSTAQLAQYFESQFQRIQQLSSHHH

[11] = biological target: T2, Tyrosyl-DNA phosphodiesterase 2 (Homo sapiens, UniProt O95551); test: human TDP2 enzyme inhibitors, dose response, biochemical, epi absorbance, IC50 (AID 743297)
T2 sequence (O95551 whole entry): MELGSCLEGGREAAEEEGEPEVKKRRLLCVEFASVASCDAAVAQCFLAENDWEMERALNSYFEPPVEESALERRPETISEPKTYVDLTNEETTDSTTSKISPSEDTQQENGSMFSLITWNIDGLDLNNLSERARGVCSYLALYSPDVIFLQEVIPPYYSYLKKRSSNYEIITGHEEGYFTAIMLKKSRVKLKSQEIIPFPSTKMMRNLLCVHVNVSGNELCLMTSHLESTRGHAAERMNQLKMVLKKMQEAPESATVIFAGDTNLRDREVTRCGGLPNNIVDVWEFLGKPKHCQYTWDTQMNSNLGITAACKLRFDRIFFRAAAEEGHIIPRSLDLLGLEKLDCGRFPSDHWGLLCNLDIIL

Chain of Tyrosine-protein kinase FRK (P42685 whole entry): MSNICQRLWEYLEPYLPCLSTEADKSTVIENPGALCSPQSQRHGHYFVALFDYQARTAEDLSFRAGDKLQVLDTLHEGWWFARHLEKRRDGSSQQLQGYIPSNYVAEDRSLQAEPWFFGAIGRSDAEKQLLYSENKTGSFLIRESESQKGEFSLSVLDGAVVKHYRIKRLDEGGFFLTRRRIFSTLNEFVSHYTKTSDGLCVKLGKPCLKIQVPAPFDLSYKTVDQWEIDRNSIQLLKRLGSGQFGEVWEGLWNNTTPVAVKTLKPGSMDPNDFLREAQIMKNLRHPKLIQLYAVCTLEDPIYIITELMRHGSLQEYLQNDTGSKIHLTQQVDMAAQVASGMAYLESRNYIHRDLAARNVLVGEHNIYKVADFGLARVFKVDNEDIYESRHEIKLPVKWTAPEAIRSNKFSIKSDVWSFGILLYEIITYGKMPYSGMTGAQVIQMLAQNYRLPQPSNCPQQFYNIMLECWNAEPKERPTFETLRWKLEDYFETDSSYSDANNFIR
Chain of G protein-coupled receptor kinase 5 (P34947 whole entry): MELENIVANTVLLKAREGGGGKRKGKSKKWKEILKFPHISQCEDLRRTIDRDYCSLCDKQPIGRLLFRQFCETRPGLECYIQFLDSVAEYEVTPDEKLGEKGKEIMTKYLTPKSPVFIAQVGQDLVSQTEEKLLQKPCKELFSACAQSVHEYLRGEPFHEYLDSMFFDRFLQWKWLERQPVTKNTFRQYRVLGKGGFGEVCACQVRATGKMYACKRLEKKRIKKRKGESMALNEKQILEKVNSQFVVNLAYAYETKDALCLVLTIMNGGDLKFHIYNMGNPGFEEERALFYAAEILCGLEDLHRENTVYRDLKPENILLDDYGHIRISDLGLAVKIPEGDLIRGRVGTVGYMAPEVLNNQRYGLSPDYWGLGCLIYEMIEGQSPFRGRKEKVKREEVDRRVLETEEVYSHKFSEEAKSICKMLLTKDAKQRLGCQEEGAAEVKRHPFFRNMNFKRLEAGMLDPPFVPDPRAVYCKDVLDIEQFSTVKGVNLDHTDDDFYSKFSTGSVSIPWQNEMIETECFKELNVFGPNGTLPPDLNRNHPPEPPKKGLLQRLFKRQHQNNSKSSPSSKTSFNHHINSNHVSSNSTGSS

SMILES	Ki [1]	Ki [2]	Ki [3]	Ki [4]	Ki [5]	Ki [6]	Ki [7]	Ki [8]	Ki [9]	EC50 [10]	IC50 [11]
Clc1cc(NC2CCCCC2)nc(-c2c[nH]c3ncccc23)n1	> 3.98 µM (inactive)	> 2.51 µM (inactive)	6.31 µM (active)	1.26 µM (active)	> 3.98 µM (inactive)	> 2.51 µM (inactive)	0.316 µM (active)	> 10 µM (inactive)	> 1.58 µM (inactive)		
Cc1ccc(/C=C2/C(=O)c3ccc(C(=O)O)cc3C2=O)o1										87.7 µM (active)	> 128 µM (inactive)
